Results from US9783859B2, “Method of screening and quantifying various enzymatic activities using artificial genetic circuits” (KOREA RESEARCH INSTITUTE OF BIOSCIENCE AND BIOTECHNOLOGY, priority 2009, dated 2017).
Like-named read-outs stand apart in the source and are kept apart here.

Tests used:
[1] = molecular target: T1, C. freundii tyrosine-phenol lyase (TPL) (Citrobacter freundii, UniProt P31013); experiment: sensing of tyrosine-phenol lyase activity with pGESS-EGFP (I); type: cell-based; conditions: 1 mM tyrosine, 10 μM PLP, 30° C. 20 hours
T1 construct: expressed in transfected cells; host or cells: E. coli DH5α containing pGESS-EGFP (I), plasmid pEC-TPL
Description: The GESS genetic circuit of the present invention can also be used to sense a reaction (phenol-lyase) of liberating phenol from substrates (Ph-C—(R)) comprising carbon coupled to phenol. In the present invention, whether the GESS genetic circuit senses the activity of TPL (enzyme degrading tyrosine into phenol, pyruvic acid and ammonia) was examined in order to verify the effectiveness of TPL. Specifically, C. freundii TPL gene was cloned into pEC11a (obtained by replacing the on of pET11a(+) with ACYC ori) to prepare pEC-TPL which was then introduced into E. coli DH5α containing pGESS-EGFP (I).

[2] = enzymatic properties of novel alkaline phosphatase (pNPP hydrolysis, absorbance at 405 nm); type: biochemical; conditions: 15 minutes, at 80° C. or below
Protocol: The optimum pH and temperature, thermal stability and substrate specificity of the selected alkaline phosphatase and the effect thereof on metal ions were examined. An enzymatic reaction was performed in the following manner. The enzymatic reaction was performed using a mixture of 50 mM diethanolamine, DEA (pH 9.0) buffer, 0.5 mM para-nitrophenylphosphate (pNPP) and the enzyme at 37° C. for 5 minutes. The same amount of 1M NaOH was added to stop the enzymatic reaction, and the amount of nitrophenol produced by the enzymatic reaction was measured. the measurement was performed by measuring the absorbance at 405 nm using a fluorescence plate reader (Victor5, Perkin-Elmer, USA). 1 unit was defined as the amount of enzyme that can produce 1 μmol of para-nitrophenol per minute at 37° C.
In order to examine the optimum pH of the novel alkaline phosphatase, the activities thereof at a pH of 7.0 to 10.5 were compared. At a pH of 7.0 to 8.5, 50 mM Tris-HCl buffer was used, and at a pH of 7.5 to 10.5, 50 mM DEA buffer was used.
In addition, the activities of the enzyme at various temperatures were compared. […] (see FIG. 25B). In addition, in order to examine the thermal inactivation of the enzyme, the enzyme was allowed to stand at various temperatures for 15 minutes, and then the remaining enzymatic activity was measured. […]

[3] = test system: genetic circuit pGESS-EGFP (III), mutant dmpR (E135K); type: cell-based, E. coli
Protocol: The colony introduced with the pGESS-EGFP (II) or pGESS-EGFP (III) genetic circuit was inoculated into LB medium and was cultured with shaking at 37° C. Next day, the culture was inoculated into LB medium to a concentration of 1% (v/v) and was cultured with shaking at 37° C. When the cell growth (OD600/ml) reached about 2.5, the cultured cells were recovered and subjected to activation of the genetic circuit. For activation of the genetic circuit, the recovered bacterial cells were washed once with M9 medium, after which they were suspended in M9 (acetate) media containing various concentrations of phenol and were cultured with shaking. Each medium was supplemented with 50 μg/ml of ampicillin as a selection marker. The bacterial cell growth was predicted by measuring absorbance (OD600) using a UV/VIS spectrometer (Ultrospec 3000, Pharmacia Biotech, Sweden), and the fluorescence intensity was measured using a fluorescence plate reader (Multi-label reader, PerkinElmer, USA).
Next, the measurement of sensitivities to 2-nitrophenol and 4-nitrophenol was performed. The measurement was performed in the same manner as above, and various concentrations of 2-nitrophenol and 4-nitrophenol in addition to phenol were added and allowed to react.

[4] = test system: genetic circuit pGESS-Km(II); conditions: phenol 1-1000 μM
Protocol: (§1) Next, the genetic circuits (pGESS-Cm(II), pGESS-Tc(II), and pGESS-Km(II)) comprising the antibiotic resistance gene as the reporter were used to perform quantitative antibiotic resistance analysis. A single colony of E. coli JM109(DE3) containing each genetic circuit comprising chloramphenicol, tetracycline or kanamycin resistance gene as a reporter was inoculated into liquid medium containing 50 μg/ml of ampicillin and was cultured with shaking overnight at 37° C. The pre-culture was 10^6-fold diluted, and 100 μl of the dilution was plated on each of selective media and cultured overnight at 37° C. for 3 days. The number of colonies produced on the solid medium was counted, thereby performing the resistance test. 50 μg/ml of ampicillin and various concentrations (0, 10, 20 and 30 μg/ml) of each of selective antibiotics (chloramphenicol, tetracycline and kanamycin resistance) were added to each selective medium. Also, a transcriptional activator, that is, phenol, was added at a concentration of 1-1000 μM.

[5] = test system: genetic circuit pGESS-Cm(II)
Protocol: as §1

[6] = test system: genetic circuit pGESS-Tc(II); conditions: phenol 1-1000 μM
Protocol: as §1

[7] = test system: phenol-sensing artificial genetic circuit pGESS-EGFP(I) (dmpR)
Protocol: The dependence of sensitivity of the artificial genetic circuit on the concentration of the inducer phenol was confirmed using a fluorescence spectrometer. For this purpose, a single colony of recombinant E. coli containing pGESS-EGFP(I) was inoculated into LB liquid medium supplemented with 50 μg/ml of ampicillin and was cultured with shaking overnight at 37° C. The above pre-culture was inoculated into LB liquid medium containing 50 μg/ml of ampicillin and various concentrations (0.1-1000 μM) of phenol to a concentration of 1% (v/v) and was cultured with shaking at 30° C. for 20 hours. To analyze the intensity of fluorescence, the cells were disrupted, and the intensity of fluorescence in the supernatant was analyzed using a fluorescence spectrometer.

[8] = test system: genetic circuit pGESS-EGFP (II)
Protocol: In the present invention, in order to increase the ability of the genetic circuit to sense phenolic compounds, the reaction of the genetic circuit was performed using the optimal medium and carbon source selected in Example 5, and the cell growth step and the step of activating (analyzing) the genetic circuit were separated from each other, thereby attempting the optimization of the sense system. Specifically, the bacterial cells were made healthy using LB medium during growth, and the cells were recovered and the activity of the genetic circuit therein was analyzed in the M9 medium containing acetate as a carbon source.
Specifically, a colony introduced with the genetic circuit was inoculated into LB medium and was cultured with shaking overnight at 37° C., and next day, the culture was inoculated into LB medium at a concentration of 1% (v/v) and was cultured with shaking at 37° C. When the cell growth (OD600/ml) reached about 2.5, the cultured cells were recovered and subjected to activation of the genetic circuit. For activation of the genetic circuit, the recovered bacterial cells were washed once with M9 medium, after they were suspended in M9 (acetate) media containing various concentrations of phenols and were cultured with shaking at 30° C. for 16 hours. Each medium was supplemented with 50 μg/ml of ampicillin as a selective marker. The intensity of fluorescence in cells induced by each concentration of phenol was measured using FACSAria system (Becton Dickinson, US). As a detector, an FSC, SSC, FL1-H (excitation=488 nm, emission=530/30 nm) detector was set, and data obtained by 50,000 sample cells were analyzed using FACSDiVa (Becton Dickinson, USA) (see FIG. 19 C).

[9] = test system: artificial genetic circuit pGESS-EGFP (I) (dmpR); type: cell-based, E. coli DH5α; conditions: 0.1-1000 μM tested, overnight at 30° C., LB medium
Protocol: The signals of the artificial genetic circuit for phenolic compounds were quantitatively analyzed. Specifically, a single colony of E. coli DH5α containing pGESS-EGFP (I) was inoculated into LB liquid medium containing 50 μg/ml of ampicillin and was cultured with shaking overnight at 37° C. The culture was inoculated into LB medium containing 50 μg/ml of ampicillin to a concentration of 1% (v/v), and 0.1-1000 μM of each of phenol, o-chlorophenol, m-chlorophenol, o-nitrophenol, catechol and resorcinol was added thereto and cultured with shaking overnight at 30° C. The cells were lysed, and the supernatant was analyzed by a fluorescence spectrometer (Varian, Australia), thereby measuring the fluorescence of GFP at 510 nm.

[10] = test system: phenol-sensing artificial genetic circuit pGESS-EGFP(I) (dmpR); conditions: solid medium, 30° C. 36 hours, fluorescence microscope
Protocol: In order to quantitatively analyze the function of the artificial genetic circuit (constructed in Example 1) to sense phenol, a single colony of recombinant E. coli BL21 containing pGESS-EGFP(I) was inoculated into LB liquid medium containing 50 μg/ml of ampicillin and was cultured with shaking overnight at 37° C.

[11] = test system: Pseudomonas sp. methyl parathion hydrolase (MPH); experiment: sensing of methyl parathion hydrolase activity with pGESS-EGFP (III); type: cell-based; conditions: 0.1 mM substrate, GFP emission at 510 nm
Protocol: The cells were lysed, and the supernatant was analyzed with a fluorescence spectrometer (Varian, Australia), thereby examining whether the emission wavelength of GFP was detected at 510 nm.

T1 sequence (P31013 whole entry): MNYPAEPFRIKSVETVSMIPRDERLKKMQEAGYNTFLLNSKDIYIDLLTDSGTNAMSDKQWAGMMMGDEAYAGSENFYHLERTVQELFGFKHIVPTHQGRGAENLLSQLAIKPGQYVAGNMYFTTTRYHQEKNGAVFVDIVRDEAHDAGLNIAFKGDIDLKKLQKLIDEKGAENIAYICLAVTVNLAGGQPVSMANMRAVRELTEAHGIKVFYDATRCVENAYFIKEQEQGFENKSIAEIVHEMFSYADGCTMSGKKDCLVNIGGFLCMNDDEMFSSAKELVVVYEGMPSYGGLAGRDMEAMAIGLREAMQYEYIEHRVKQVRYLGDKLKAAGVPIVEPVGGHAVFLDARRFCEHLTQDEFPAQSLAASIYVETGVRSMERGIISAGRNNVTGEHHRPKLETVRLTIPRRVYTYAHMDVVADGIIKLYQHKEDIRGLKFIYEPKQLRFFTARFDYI

**Q.** With `N[C@@H](Cc1ccc(O)cc1)C(=O)O` [tyrosine] as the compound, how does the “intensity of fluorescence in the cell lysis due to TPL activity” value [1] read?
**A.** The value was “significantly increased”.

**Q.** With “alkaline phosphatase (BAP) from E. coli: alkaline phosphatase (BAP) from E. coli” as the compound, how does the thermal inactivation [2] read?
**A.** The thermal inactivation was “not inactivated”.

**Q.** With `Oc1ccccc1` [phenol] as the compound, how does the “sensitivity relative to wild dmpR” value ([3]; mutant dmpR vs wild dmpR (pGESS-EGFP (II))) read?
**A.** The value was “about 10 times”.

**Q.** What about the “relative sensitivity among phenol, 4-nitrophenol and 2-nitrophenol” value ([3]; pGESS-EGFP (III)) of the same compound?
**A.** Its value is “highest”.

**Q.** What about the “concentration range which could be quantitatively sensed” value ([3]; pGESS-EGFP (III), mutant dmpR, M9 (acetate)) of the same compound?
**A.** The value was 0.1 to 10 µM.

**Q.** And the “phenol-dependent kanamycin resistance (colony formation)” value [4]?
**A.** Its value is “the formation of colonies was not sensed”.

**Q.** And the resistance to chloramphenicol ([5]; phenol concentration 100 μM)?
**A.** The resistance to chloramphenicol was 40 µg/mL.

**Q.** What about the resistance to chloramphenicol ([5]; phenol concentration 1 mM) of the same compound?
**A.** Its resistance to chloramphenicol is 50 µg/mL.

**Q.** What about the resistance to chloramphenicol ([5]; phenol concentration of 10 μM) of the same compound?
**A.** Its resistance to chloramphenicol is no more than 20 µg/mL.

**Q.** What about the “phenol-dependent tetracycline resistance (colony formation)” value [6] of the same compound?
**A.** The value was “quantitative results similar to those in the case of chloramphenicol”.

**Q.** And the “phenol concentration at which a clear fluorescent signal was observed” value ([7]; LB liquid medium, 30° C. 20 hours, fluorescence spectrometer)?
**A.** The value was no less than 10 µM.

**Q.** What about the “phenol concentration range in which the genetic circuit is quantitatively activated” value ([7]; pGESS-EGFP(I)) of the same compound?
**A.** Its value is 1 to 1000 µM.

**Q.** And the “increase of reaction value” ([8]; 2-step activity analysis)?
**A.** Its value is “about 5 times”.

**Q.** What about the “sensitivity relative to the previous sensitivity” value ([8]; 2-step activity analysis) of the same compound?
**A.** The value was “about 10 times”.

**Q.** And the “concentration range of phenol which could be quantitatively analyzed” value ([8]; 2-step activity analysis, M9 (acetate))?
**A.** The value was 1 to 10 µM.

**Q.** And the “phenol concentration that could be sensed by 2-step activity analysis” value ([8]; M9 (acetate), 30° C. 16 hours)?
**A.** Its value is “at least 1 μM”.

**Q.** And the “concentration from which fluorescence started to be sensed” value [9]?
**A.** Its value is 1 µM.

**Q.** What about the “phenol concentration at which colony fluorescence was observed” value [10] of the same compound?
**A.** Its value is “more than 1 μM”.

**Q.** With `COP(=S)(OC)Oc1ccc([N+](=O)[O-])cc1` [methyl parathion] as the compound, how does the “fluorescence in the presence of MPH” value [11] read?
**A.** The value was “strong fluorescence was observed”.
